Assay results from paper PMC8923309, “Permeability evaluation of gemcitabine-CPP6 conjugates in Caco-2 cells” (ADMET & DMPK, 2020).
Numbered stars: 1 amine (or outer) side, 2 acyl side, 3 side chain; on linkers, the order of the positions; unused ones are H or OH. Ends that are not written are not given here. Peptide text beside a SMILES is read from it. * marks the point of attachment. X1 = O=c1nc(N*)ccn1[C@@H]1O[C@H](CO)[C@@H](O)C1(F)F; Suc = O=C(CCC(=O)[*:2])[*:1]

How the values were obtained:
[1] = tested on: Caco-2 monolayer; test: Transport across Caco-2 monolayer (permeability assay); conditions: HPLC-UV; for sum of the CPP absorbed from the apical side and found in the basolateral chamber at the end of the experiment: 60 μM apical in HBSS pH 7.4, 37 °C, remainder retained in cells or degraded; for percentage of amount applied apically recovered in the basolateral compartment at 120 min / sum of the CPP absorbed from the apical side and found in the basolateral chamber at the end of the experiment: 120 min
Method: (§1) A monolayer of Caco-2 cells was established in a 12-well plate [11]. […] Firstly, filters were pre-wet with 0.1 mL of culture medium for 2 minutes. Cells were seeded in the apical side (0.5 mL of cells per well, cell density of 4.0 x 10^5 cells/mL). The basolateral compartment was filled with 1.5 mL of culture medium and plates were incubated for 6 h (5 % CO2 humidified atmosphere at 37 °C). Then, to remove non-adherent cells and reduce the risk of multilayer formation, the medium in the apical side was removed and replaced with fresh medium. Cells were maintained for 29 days, replacing the culture medium from both compartments every other day.
(§2) All the solutions used were pre-warmed to 37 °C. Culture medium was replaced with fresh medium 24 h prior the beginning of the experiment. Next, this culture medium was removed first from the basolateral and then from the apical compartment. The apical compartment was carefully washed and then filled with 0.5 mL of Hank’s Balanced Salt Solution (HBSS, pH 7.4) and the basolateral compartment was also filled with 1.5 mL of HBSS. […] All tested compounds were prepared in HBBS (60 μM) and added to the apical compartment. Throughout this assay, the final volume was 0.4 mL in the apical compartment and 1.2 mL in the basolateral chamber. At t = 0 min, 0.45 mL of the donor solution was added to the apical compartment and a sample (0.05 mL) was immediately taken. The plate was incubated (lid-covered) at 37 °C under gentle shaking (190 rpm). Every 30 min for the next 2 h, a sample of 0.6 mL was taken from the basolateral compartment and replaced with the same volume of HBSS.
(§3) The concentrations of the evaluated compound in the basolateral and apical compartments were determined by high-performance liquid chromatography (HPLC) (VWR International LCC, LaChrom Ultra, Pennsylvania, USA). Elution was performed with a variable gradient of acetonitrile (ACN) in water containing 0.05 % trifluoroacetic acid (TFA), at a 0.7 mL/min flow and detection at variable wavelength (243 nm for gemcitabine and 220 nm for peptides and conjugates).

[2] = tested on: Caco-2 monolayer
Method: as §1, §2, §3

[3] = tested on: Caco-2 cells; test: MTT cytotoxicity assay (cell growth inhibition); format: cell-based; conditions: Homo sapiens, 72 h incubation, 0.1-100000 μM, absorbance 570 nm, triplicate
Method: Human colon adenocarcinoma cell line Caco-2 (passage 25-47, kindly provided by the Department of Biomedicine of the Faculty of Medicine of University of Porto, and previously acquired via ATCC) was routinely maintained in Dulbecco’s Modified Eagle’s Medium (DMEM) supplemented with 10 % fetal bovine serum (FBS), L-glutamine and antibiotics penicillin and streptomycin. Cells were cultured at 37 °C in a 5 % CO2 humidified atmosphere. Culturing medium was replaced every 2-3 days and cell subculture was conducted once a week by trypsinization (0.25 % trypsin-EDTA wt/vol, 5, min, 37, °C).
The cell growth inhibitory activity of gemcitabine in Caco-2 cells was assessed with the MTT assay. Briefly, a growth curve was traced to determine the best cell density for the assay. […] Finally, MTT solution was removed, DMSO (100 μL per well) was added to solubilize the formazan crystals formed by viable cells and absorbance was measured at 570 nm in an automated microplate reader (Sinergy HT, Biotek Instruments Inc, Vermont, USA). […]
Gemcitabine cytotoxicity results were compared with the untreated control (mean of values was set to 100 %) and expressed as mean ± SEM. The statistical significance between different gemcitabine concentrations was analyzed in GraphPad Prism 7 (San Diego, EUA) using one-way ANOVA (p<0.05).

[4] = parameters: method as in PMID 16807468; conditions: administered intravenously; rapid deamination by cytidine deaminase in serum; cited from earlier work
Source text: Gemcitabine (Gem, dFdC or 2′,2′-difluoro-2′-deoxycytidine, Scheme 1) is a cytotoxic nucleoside analogue used as a chemotherapeutic drug.

[5] = Caco-2 monolayer (29 days, Transwell COL PTFE 0.4 μm), apical to basolateral, 60 μM in HBSS pH 7.4, 37 °C, 190 rpm

Compound	percentage of amount applied apically recovered in the basolateral compartment at 120 min [1, 5]	sum of the CPP absorbed from the apical side and found in the basolateral chamber at the end of the experiment ([1]; Caco-2 monolayer)	further results
CSCC[C@H](NC(=O)[C@@H](NC(=O)[C@@H]1CCCN1C(=O)[C@H](CC(C)C)NC(=O)[C@H](CCCCN)NC(=O)[C@H](Cc1c[nH]c2ccccc12)NC(=O)CCC(=O)Nc1ccn([C@@H]2O[C@H](CO)[C@@H](O)C2(F)F)c(=O)n1)C(C)C)C(N)=O [Gem-CPP6-1] ({X1-Suc}-WKLPVM-NH2)	9%		
CSCC[C@H](NC(=O)[C@@H](NC(=O)[C@@H]1CCCN1C(=O)[C@H](CC(C)C)NC(=O)[C@H](CCCCN)NC(=O)CCC(=O)Nc1ccn([C@@H]2O[C@H](CO)[C@@H](O)C2(F)F)c(=O)n1)C(C)C)C(=O)N[C@@H](Cc1c[nH]c2ccccc12)C(N)=O [Gem-CPP6-2] ({X1-Suc}-KLPVMW-NH2)	Approximately 31%		extent of permeation relative to Gem-CPP6-1 and Gem-CPP6-3 conjugates [2]: about 3 fold
Nc1ccn([C@@H]2O[C@H](CO)[C@@H](O)C2(F)F)c(=O)n1 [Gemcitabine, 2′,2′-difluoro-2′-deoxycytidine]	18%		percentage found in the basolateral side after 30 minutes ([1]; Caco-2 monolayer (29 days, Transwell COL PTFE 0.4 μm), apical to basolateral, 60 μM in HBSS pH 7.4, 37 °C, 190 rpm, 30 min): 3%; additional percentage of drug crossing the membrane from 90 min (plateau) until 120 min ([1]; Caco-2 monolayer, apical to basolateral, 60 μM in HBSS pH 7.4, 37 °C, between 90 and 120 min): 1%; IC50 [3]: 52.4 µM; half-life [4]: 8 to 17 min
KLPVMW-NH2 [CPP6-2]	40%	84%	
WKLPVM-NH2 [CPP6-1]	33%	50%	
WVPTLK [CPP6-3]	37%	75%	
